Source: patent publication US11234992B2, “Methods and therapies for treating atherosclerosis and/or hyperlipidemia using oligosaccharides” (The Regents of the University of California, priority 2018, dated 2022)
Values after ≈ are worked out from the molar mass of the structure shown. “Also recorded” adds a separate entry of the source.

Legend:
IL-6 = experiment: Attenuation of IL-6 cytokine expression (IC50); format: cell-based
Method: (§1) In particular, pooled HMOs (˜100 μg/mL) attenuated LPS-induced M1 polarization and importantly its subsequent cytokine expression (IL-1β, IL-6, etc. mRNA and protein levels) in a mouse macrophage cell line (RAW246) and in primary bone marrow derived macrophages (BMDM). […] Moreover, the attenuation effects remain when cells are stimulated with LipidA instead of LPS, excluding carbohydrate-carbohydrate interactions between LPS and HMOs above the cell surface.

[1] = tested on: mice on a high fat diet (HFD); experiment: In vivo atherosclerosis/hyperlipidemia mouse model on high fat diet; conditions: for inflammation in the liver, adipose tissue and arterial vessel wall / systemic secretion of pro-inflammatory cytokines like IL-1β and IL-6: in vitro and in vivo studies
Method: FIG. 1 provides a diagram of a mouse model used to test 3′SL effects on atherosclerosis. In particular, the mice are fed a high fat diet for two weeks prior to treatment in order to promote atherosclerosis in the mice. Treatment begins at the end of the second week with 3′SL or vehicle, whereby 3′SL or vehicle are administered to the mice twice daily at a dose of 90 mg/gavage. After 6 weeks of treatment, the mice are sacrificed and atherosclerosis lesions and plaques are assessed.
The complex pathology of atherosclerosis is characterized by the accumulation of lipids, inflammatory cells, and fibrous elements in large- and medium-sized arteries. According to the “response-to-retention” model, focal infiltration and retention of apolipoprotein B (apoB)-containing lipoproteins, such as low-density lipoproteins (LDLs), lipoprotein (a), and triglyceride-rich remnant particles (TRLs), in the subendothelial matrix of the tunica intima of arteries at atherosclerosis-prone sites initiates atherogenesis. Subsequent oxidation, lipolysis, proteolysis, and further aggregation of trapped LDL particles contribute to a chronic inflammatory response characterized by monocyte and T cell migration into the intima. Monocytes entering the plaque differentiate into macrophages and the expression of scavenger receptors result in internalization of modified lipoprotein particles. Lesion macrophages proliferate, accumulate massive amounts of cholesterol, and become lipid droplet-loaded “foam cells,” resulting in their retention in the lesion. Atherosclerosis is further characterized by the accumulation of M1-like macrophages and secretion of characteristic cytokines and chemokines. Priming of macrophages is sufficient to promote increased macrophage infiltration and inflammation in aorta, exacerbating atherosclerosis. […] Therefore, we will use Ldlr^−/− mice with a hypercholesterolemic background to study atherosclerosis development, which has several advantages: (1) cholesterol in Ldlr^−/− mice is mainly restricted to LDL particles resembling the situation in humans; (2) because of the minor importance of Ldlr in bone marrow derived cells related to atherosclerosis, the Ldlr^−/− mice are a very suitable model to study the role of candidate genes in these cells; (3) initiation of atherosclerotic plaque development can be highly controlled, as atherosclerosis will develop only upon feeding a high-fat/high-cholesterol diet.
Atherogenesis is determined by “en face” preparation of the entire aorta and Sudan IV staining to determine lipid infiltration as a measure for lesion surface as described in Gordts et al. (Arterioscler Thromb Vasc Biol. 29:1258-64 (2009)). In addition, the heart is isolated for sectioning of the aortic root to determine aortic root lesion area and qualitative assessment of the plaque phenotype. Aortic root cross-sectional atherosclerosis is measured by cutting 10 μm paraffin sections starting at the aortic valve plane and covering 1,000 μm in 100-μm increments. Two approaches are used to assess if 3′SL administration affects plaque stability and inflammatory cell composition in atherosclerotic plaques. Sections are immunostained using various antibodies to identify smooth muscle cells and macrophages and apoB content as well as the presence of oxidation-specific antibodies reflective of OxLDL. The extracellular content is visualized via staining using Oil red O (lipids), Hematoxylin and Eosin (necrotic core), Movat Pentachrome (proteoglycans), Masson-Goldner (collagen) and Verhoeffs van Gieson (elastin) staining protocols. As a measurement of the clinically relevant plaque vulnerability/stability in advanced lesions, fibrous cap thickness is determined by comparing serial sections each stained for smooth muscle cells and collagens, and the extent of necrosis will be quantified using imaging techniques as described in Gordts P L et al. (Cell Metabolism 20:813-26 (2014)). […]

[2] = tested on: mouse macrophage cell line (RAW246); experiment: LPS-induced M1 polarization and cytokine expression in mouse macrophage cell line; format: cell-based; conditions: preliminary results
Method: as §1
(§2) Here, the aim is to test whether the results translate to in vivo efficacy in a short-term and a long-term disease model of chronic inflammation. Rheumatoid arthritis (RA) is an inflammatory disorder that affects approximately 1% of the adult population worldwide. It is characterized by systemic and local inflammation that leads to cartilage and bone destruction. Collagen antibody-induced arthritis (CAIA) is a simple RA mouse model that can be used to address questions of pathogenic mechanisms and to screen candidate therapeutic agents. Arthritis is induced by the systemic administration of a cocktail of monoclonal antibodies that target various regions of collagen type II, which is one of the major constituents of articular cartilage matrix proteins, together with LPS. […]

[3] = tested on: primary bone marrow derived macrophages (BMDM); experiment: LPS-induced M1 polarization and cytokine expression in primary bone marrow derived macrophages; format: cell-based; conditions: primary mouse cells; preliminary results
Method: as §1, §2

IL-1β = experiment: Attenuation of IL-1β cytokine expression (IC50); format: cell-based; conditions: cell type not given
Method: as §1

MAPK pathway = experiment: Downstream signalling in BMDM, MAPK pathway; format: cell-based, mouse; conditions: in the absence and presence of LPS
Method: as §1
To elucidate the receptor, signaling pathway and downstream transcription regulated by 3′SL in BMDM, a three-prong approach is utilized: (a) Whole Transcriptome Shotgun Sequencing (WTSS) is used to identify differentially regulated genes. […] In both approaches, naive BMDM is compared with 3′SL-treated BMDM as well LPS-stimulated BMDM and LPS-treated BMDM co-treated with 3′SL; and (c) A 3′SL affinity matrix is generated to run macrophage plasma membrane and isolate 3′SL binding proteins. Proteins are eluted from the matrix using different salt gradients and analyzed by silvers staining. Relevant elution fraction and individual protein bands are isolated and prepared for mass-spectrometry analysis. The above three-way approach allows for the identification of the receptor, signaling pathway and downstream transcription that is regulated by 3′SL. […]

[4] = tested on: LPS-activated Thp-1 cells (human cell line); experiment: Cytokine expression in LPS-activated Thp-1 cells; format: cell-based
[5] = summary statement, lipid metabolism

Structure (SMILES)	therapeutic effect (IL-6; test not specified, stated directly after the 3′SL cytokine IC50 values)	inflammation in the liver, adipose tissue and arterial vessel wall ([1]; summary statement)	systemic secretion of pro-inflammatory cytokines like IL-1β and IL-6 ([1]; summary statement)	LPS-induced M1 polarization and subsequent cytokine expression (IL-1b, IL-6, etc. mRNA and protein levels) [2]	LPS-induced M1 polarization and subsequent cytokine expression (IL-1b, IL-6, etc. mRNA and protein levels) [3]	IC50 (IL-6; cell type not given)	IC50 (IL-1β)	down-stream activation of the MAPK pathway (MAPK pathway)	cytokine expression ([4]; LPS-activated Thp-1 cells)	LPS-induced M1 polarization and subsequent cytokine expression (IL-1b, IL-6, etc. mRNA and protein levels) ([4]; human cell line, preliminary results)	plasma triglycerides (TG) levels ([1]; mice on high fat diet, 3′SL twice daily 90 mg/gavage for 6 weeks vs vehicle, FIG. 2A)	cholesterol levels ([1]; mice on high fat diet, 3′SL twice daily 90 mg/gavage for 6 weeks vs vehicle, FIG. 2B)	lesion area of atherosclerotic lesions (En Face) ([1]; mice on high fat diet, 3′SL twice daily 90 mg/gavage for 6 weeks vs vehicle, FIG. 3A)	aortic plaque size ([1]; mice on high fat diet, 3′SL twice daily 90 mg/gavage for 6 weeks vs vehicle, FIG. 3B)	lipase activity [1, 5]	postprandial lipid clearance [1, 5]
CC(=O)N[C@H]1[C@H]([C@H](O)[C@H](O)CO)O[C@@](OC[C@H]2O[C@@H](O[C@H]3[C@H](O)[C@@H](O)[C@H](O)O[C@@H]3CO)[C@H](O)[C@@H](O)[C@H]2O)(C(=O)O)C[C@@H]1O [6′SL, 6′-sialyllactose]	therapeutic effect	attenuate	suppresses	–	–	–	–	–	–	–	–	–	–	–	–	–
CC(=O)NC1C(O)CC(OC2C(O)C(CO)OC(OC(C(O)CO)C(O)C(O)C=O)C2O)(C(=O)O)OC1C(O)C(O)CO (stereo not drawn) [3′SL, 3′-sialyllactose]	–	attenuate	suppresses	attenuates	attenuates	~16.5 mg/L (≈ 26 µM)	~44.4 mg/L (≈ 70.1 µM)	regulate down-stream activation	effectively reduced	attenuates	lower plasma triglyceride levels; also recorded: significant decrease	lower cholesterol levels; also recorded: significant decrease	smaller lesion areas; also recorded: significantly reduced in size	smaller sized plaques; also recorded: significantly reduced	promoting	promoting
